The source made the active and inactive calls. How the calls were made is not given here.
Tested on: parental CHO-K1 cells, HTRF counterscreen
Assay: nonspecific inhibition in untransfected CHO-K1 – cell-based, HTRF, dose response, counter-screen for OX1R antagonist project, late-stage follow-up (AID 624407)

SMILES | IC50
CCSC1=C(C#N)C(c2ccccc2Cl)C(C(=O)c2cccs2)C(O)(C(F)(F)F)N1 (stereo unspecified) | > 59.6 µM (inactive)
CCc1cc(C(=O)OCC(=O)N2CCC(c3ccccc3)=N2)sc1C | > 59.6 µM (inactive)
Cc1cccc(C=NNC(=O)c2cc3c(s2)-c2ccccc2CC3)c1 | > 59.6 µM (inactive)
CN(N=Cc1cc([N+](=O)[O-])ccc1O)c1ccccc1 | > 59.6 µM (inactive)
Cc1ccccc1NC(=O)C1CCCN1S(=O)(=O)c1ccccc1C(F)(F)F (stereo unspecified) | > 59.6 µM (inactive)
CC(=C/c1ccccc1)/C=C1/SC(N2CCOCC2)=NC1=O | 12.4 µM (inactive)
CCOc1ccccc1C(=O)Nc1ccc2nc3n(c(=O)c2c1)CCCCC3 | > 59.6 µM (inactive)
O=C(CSc1ccc(-c2ccccc2)nn1)c1cccs1 | > 59.6 µM (inactive)
CCn1c(SCC(=O)Nc2ccc3c(c2)c2ccccc2n3CC)nnc1-c1cnccn1 | > 59.6 µM (inactive)
CCc1cc2c(SCC(=O)N(CC)c3c(N)n(Cc4ccccc4)c(=O)[nH]c3=O)ncnc2s1 | > 59.6 µM (inactive)
COc1ccc(OC)c(S(=O)(=O)NCC(c2ccco2)N2CCc3ccccc32)c1 (stereo unspecified) | > 59.6 µM (inactive)
Cc1ccc(-c2csc3nnc(SCC(=O)Nc4nsc(-c5ccccc5)n4)n23)cc1 | > 59.6 µM (inactive)
COCCCNC(=O)CCC(=O)NNc1nc2ccccc2c2nc(-c3ccccc3)nn12 | > 59.6 µM (inactive)
Cc1c(NS(=O)(=O)c2cccc(C(=O)OCC(=O)N(C)C3CCCCC3)c2)c(=O)n(-c2ccccc2)n1C | > 59.6 µM (inactive)
COc1cc(OC)c(-c2nc3ccccc3s2)cc1OC | > 59.6 µM (inactive)
O=C(CN1C(=O)/C(=C\c2cccc(Br)c2)Oc2ccccc21)NCC1CCCO1 (stereo unspecified) | > 59.6 µM (inactive)
Cc1cc(Cl)ccc1OCCCC(=O)NCCN1C(=O)S/C(=C\c2cccnc2)C1=O | 8.79 µM
CCN(CC)c1ccc(NC(=O)Cn2c(C(C)NC(=O)c3ccccc3)nc3ccccc32)cc1 (stereo unspecified) | > 59.6 µM (inactive)
Fc1cccc(Nc2nc3ccccc3n3cnnc23)c1 | > 59.6 µM (inactive)
CCOC(=O)N1CCN(C(=O)CSc2ccc(-c3ccccc3)nn2)CC1 | > 59.6 µM (inactive)
COc1cccc(/C=C2/Oc3ccccc3N(CC(=O)NCC3CCCO3)C2=O)c1 (stereo unspecified) | > 59.6 µM (inactive)
O=c1cc(CN2CC(O)Cc3ccc4ccccc4c32)nc2sccn12 (stereo unspecified) | > 59.6 µM (inactive)
CSc1cccc(NC(=O)C2CCCN2S(=O)(=O)c2ccc(Br)s2)c1 (stereo unspecified) | > 59.6 µM (inactive)
CSc1cccc(N2CC(C(=O)NCCN3C(=O)S/C(=C\c4cccnc4)C3=O)CC2=O)c1 (stereo unspecified) | 3.37 µM
Cc1noc(C)c1COc1ccc(C(=O)OCC(=O)N2CC(=O)Nc3ccccc32)cc1 | > 59.6 µM (inactive)
Cc1cccc(NC(=O)[C@@H]2CCCN2S(=O)(=O)c2ccc(Cl)cc2)c1 | > 59.6 µM (inactive)

Reference: PubChem BioAssay AID624407 (The Scripps Research Institute Molecular Screening Center, 2012)
